From ChEMBL document CHEMBL1150539, “A novel non nucleoside compound with high in vitro anti-HIV-1 activity. Absolute stereochemistry determination” (Bioorg Med Chem Lett, 1995)
pEC50, pIC50: −log10 of the molar value. Values joined by “and” are separate entries in the source; they are usually repeats but may differ in a detail not shown here. Equal entries are not always repeated.

Tests used:
Assay type in all cases: functional, cell-based, Homo sapiens
CEM-SS [1] = experiment: Effective concentration required for 50% inhibition of viral replication by XTT cytoprotection assay carried out in CEM-SS cells
CEM-SS [2] = experiment: Effective concentration required for 50% inhibition of viral replication by syncytium-forming assay carried out in CEM-SS cells
CEM-SS [3] = experiment: Compound was evaluated for inhibitory activity against cell growth

SMILES	pEC50 (CEM-SS [1]; Homo sapiens, CEM-SS)	pEC50 (CEM-SS [2]; cem-ss)	pIC50 (CEM-SS [3]; cem-ss)	pEC50 (CEM-SS [1]; cem-ss)	pEC50 (CEM-SS [2]; Homo sapiens, CEM-SS)	pIC50 (CEM-SS [3]; Homo sapiens, CEM-SS)
CC1(C)CCC[C@@]2(C)[C@H](c3ccoc3)C(=O)[C@H]3O[C@@]312 (racemic)	5.89	5.77	4.34 and 4.27			
CC1(C)CCC[C@@]2(C)[C@H](c3ccoc3)C(=O)[C@H]3O[C@@]312		6.22	4.38 and 3.87	6.10		
CC1(C)CCC[C@]2(C)[C@@H](c3ccoc3)C(=O)[C@@H]3O[C@]312	4.38		4.32 and 3.81		4.81	
Cc1cn([C@H]2C[C@H](N=[N+]=[N-])[C@@H](CO)O2)c(=O)[nH]c1=O [ZIDOVUDINE]	6.52				7.70	< 2.72
